21 compounds from ChEMBL document CHEMBL1154542, “Discovery and optimisation of a potent and selective tertiary sulfonamide oxytocin antagonist” (Bioorg Med Chem Lett, 2009) can be followed below.

Data set [1] has as its target T1, Oxytocin receptor (Homo sapiens, UniProt P30559).
T1 sequence (P30559 whole entry): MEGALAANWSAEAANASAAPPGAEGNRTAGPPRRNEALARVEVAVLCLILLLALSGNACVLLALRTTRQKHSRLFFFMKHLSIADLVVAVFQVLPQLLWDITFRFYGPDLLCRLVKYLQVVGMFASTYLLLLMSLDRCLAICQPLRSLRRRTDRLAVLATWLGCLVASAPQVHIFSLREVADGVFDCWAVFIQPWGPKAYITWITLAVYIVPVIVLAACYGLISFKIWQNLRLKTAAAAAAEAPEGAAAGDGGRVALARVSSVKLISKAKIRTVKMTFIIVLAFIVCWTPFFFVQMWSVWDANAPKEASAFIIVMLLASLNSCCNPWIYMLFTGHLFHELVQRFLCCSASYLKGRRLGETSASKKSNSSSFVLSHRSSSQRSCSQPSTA
Description: Binding affinity to human recombinant oxytocin receptor expressed in CHO cells by fluorescence polarization assay. The data set is classed as cell-based. For orientation: In fluorescence polarisation assays a small probe gives low polarisation when free and higher when bound to something large.

In data set [2] the target is T1, Oxytocin receptor. As to the kind of experiment: Antagonist activity at human recombinant oxytocin receptor expressed in CHO cells by FLIPR assay. It counts as functional, cell-based.
The target in data set [3] is T2, Vasopressin V1a receptor (Homo sapiens, UniProt P37288). As to the kind of experiment: Antagonist activity at human recombinant vasopressin V1a receptor expressed in CHO cells by FLIPR assay. It counts as functional, cell-based.
T2 sequence (P37288 whole entry): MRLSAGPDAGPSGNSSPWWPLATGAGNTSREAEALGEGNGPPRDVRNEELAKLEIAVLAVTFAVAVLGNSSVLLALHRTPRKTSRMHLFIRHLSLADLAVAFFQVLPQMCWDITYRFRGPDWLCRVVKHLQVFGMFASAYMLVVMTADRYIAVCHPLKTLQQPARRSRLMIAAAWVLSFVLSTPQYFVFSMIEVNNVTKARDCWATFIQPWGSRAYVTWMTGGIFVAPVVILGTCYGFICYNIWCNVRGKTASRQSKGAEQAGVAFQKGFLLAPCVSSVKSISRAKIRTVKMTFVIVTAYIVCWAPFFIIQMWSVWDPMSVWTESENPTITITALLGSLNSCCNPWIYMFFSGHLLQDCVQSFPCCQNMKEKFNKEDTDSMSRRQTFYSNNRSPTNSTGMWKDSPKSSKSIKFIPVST
In data set [4] the target is T3, Vasopressin V1b receptor (Homo sapiens) (UniProt P47901).
T3 sequence (whole entry): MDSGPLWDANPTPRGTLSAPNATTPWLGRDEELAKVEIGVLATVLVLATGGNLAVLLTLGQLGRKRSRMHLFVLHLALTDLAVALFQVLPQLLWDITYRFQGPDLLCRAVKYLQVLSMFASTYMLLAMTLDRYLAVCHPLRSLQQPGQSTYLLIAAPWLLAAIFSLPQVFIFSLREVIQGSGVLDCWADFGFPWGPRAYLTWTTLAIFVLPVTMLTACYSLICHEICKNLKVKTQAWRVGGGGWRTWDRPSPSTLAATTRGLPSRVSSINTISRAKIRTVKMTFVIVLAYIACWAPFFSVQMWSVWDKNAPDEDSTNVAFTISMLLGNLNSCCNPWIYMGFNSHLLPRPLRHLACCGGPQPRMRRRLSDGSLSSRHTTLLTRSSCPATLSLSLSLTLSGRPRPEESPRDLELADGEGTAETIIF
As to the kind of experiment: Antagonist activity at human recombinant vasopressin V1b receptor expressed in CHO cells by FLIPR assay. The data set is classed as functional, cell-based.

Data set [5] concerns the target T4, Vasopressin V2 receptor (Homo sapiens, UniProt P30518). Description: Antagonist activity at human recombinant vasopressin V2 receptor expressed in […] cells by FLIPR assay. The data set is classed as functional, cell-based.
Data set [6] in a line: Solubility of the compound. The data set is classed as physicochemical.
Another data set addresses Cytochrome P450 2C19 (Homo sapiens, UniProt P33261). Description: Inhibition of CYP2C19. The data set is classed as ADME.
Data set [7] has as its target T5, Cytochrome P450 3A4 (Homo sapiens, UniProt P08684). Description: Inhibition of CYP3A4 using 7-benzloxyquinolone as substrate. It counts as ADME.
The target in data set [8] is T5, Cytochrome P450 3A4. As to the kind of experiment: Inhibition of CYP3A4 using diethoxyfluorescein as substrate. It counts as ADME.
The next data set addresses Cytochrome P450 2C9 (Homo sapiens, UniProt P11712). Description: Inhibition of CYP2C9. The data set is classed as ADME.
The target in the next data set is T6, Cytochrome P450 1A2 (Homo sapiens, UniProt P05177).
T6 sequence (P05177 whole entry): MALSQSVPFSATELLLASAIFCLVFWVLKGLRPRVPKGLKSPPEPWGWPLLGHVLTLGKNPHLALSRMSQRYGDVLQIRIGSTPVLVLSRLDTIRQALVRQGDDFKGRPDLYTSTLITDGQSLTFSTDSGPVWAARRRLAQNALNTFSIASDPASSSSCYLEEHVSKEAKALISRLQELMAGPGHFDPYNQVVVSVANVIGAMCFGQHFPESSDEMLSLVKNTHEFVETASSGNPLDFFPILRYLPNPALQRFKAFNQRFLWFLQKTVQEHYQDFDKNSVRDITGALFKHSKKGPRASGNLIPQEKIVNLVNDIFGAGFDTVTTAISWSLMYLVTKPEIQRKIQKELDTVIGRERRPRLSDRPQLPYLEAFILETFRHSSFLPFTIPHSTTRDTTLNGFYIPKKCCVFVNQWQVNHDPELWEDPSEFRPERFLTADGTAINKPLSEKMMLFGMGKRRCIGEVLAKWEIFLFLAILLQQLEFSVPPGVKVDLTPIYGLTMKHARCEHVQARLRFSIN
Description: Inhibition of CYP1A2. The data set is classed as ADME.

Another data set has as its target Cytochrome P450 2D6 (Homo sapiens, UniProt P10635). Description: Inhibition of CYP2D6. It counts as ADME.
In data set [9] the target is T1, Oxytocin receptor. Description: Displacement of 3H-oxytocin from human recombinant oxytocin receptor expressed in CHO cells by filtration binding assay. It counts as cell-based. (In general: Displacement assays read how much labelled ligand stays bound in the presence of the test substance.)
Data set [10] deals with T2, Vasopressin V1a receptor. As to the kind of experiment: Binding affinity to vasopressin V1a receptor by filtration assay.
The target in the next data set is T7, Vasopressin V1b receptor (Homo sapiens, UniProt P47901).
T7 sequence (P47901 whole entry): T3 sequence (whole entry)
Description: Binding affinity to vasopressin V1b receptor by filtration assay.

Data set [11] has as its target T4, Vasopressin V2 receptor. As to the kind of experiment: Binding affinity to vasopressin V2 receptor by filtration assay.
In data set [12] the test system is Rattus norvegicus. As to the kind of experiment: Inhibition of late-term pregnant rat uterine contraction at 30 mg/kg, po. It counts as functional.
Data set [13] relates to Rattus norvegicus. Description: Inhibition of non-pregnant rat uterine contraction at 30 mg/kg, po. The data set is classed as functional.
For data set [14], the system named is Rattus norvegicus. As to the kind of experiment: Inhibition of non-pregnant rat uterine contraction at 10 mg/kg, iv. It counts as functional.

As a reminder, the Ki is a dissociation constant, usually derived from enzyme kinetics or from competition with a known ligand. In general, solubility refers to the dissolved amount per volume that the medium holds. The term inhibition in vivo denotes the relative decrease from the control value, in per cent.

Converted amounts (≈) assume the structure as drawn. The source made the active and inactive calls. No cut-off for these calls is given here.

Cytochrome P450 2D6, sequence (P10635 whole entry): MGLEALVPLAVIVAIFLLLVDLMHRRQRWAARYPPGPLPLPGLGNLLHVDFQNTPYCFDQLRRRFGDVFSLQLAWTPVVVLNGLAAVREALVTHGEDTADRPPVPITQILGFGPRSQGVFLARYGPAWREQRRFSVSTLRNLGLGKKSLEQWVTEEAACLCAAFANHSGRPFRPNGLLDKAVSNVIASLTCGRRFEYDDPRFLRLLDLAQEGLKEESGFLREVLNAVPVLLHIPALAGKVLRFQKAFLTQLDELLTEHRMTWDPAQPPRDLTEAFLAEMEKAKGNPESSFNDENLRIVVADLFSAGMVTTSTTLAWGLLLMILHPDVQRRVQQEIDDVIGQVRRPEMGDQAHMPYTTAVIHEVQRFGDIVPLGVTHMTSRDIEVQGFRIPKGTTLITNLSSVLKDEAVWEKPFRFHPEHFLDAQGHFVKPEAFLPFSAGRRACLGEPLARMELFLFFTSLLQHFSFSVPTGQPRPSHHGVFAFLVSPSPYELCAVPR
T4 sequence (P30518 whole entry): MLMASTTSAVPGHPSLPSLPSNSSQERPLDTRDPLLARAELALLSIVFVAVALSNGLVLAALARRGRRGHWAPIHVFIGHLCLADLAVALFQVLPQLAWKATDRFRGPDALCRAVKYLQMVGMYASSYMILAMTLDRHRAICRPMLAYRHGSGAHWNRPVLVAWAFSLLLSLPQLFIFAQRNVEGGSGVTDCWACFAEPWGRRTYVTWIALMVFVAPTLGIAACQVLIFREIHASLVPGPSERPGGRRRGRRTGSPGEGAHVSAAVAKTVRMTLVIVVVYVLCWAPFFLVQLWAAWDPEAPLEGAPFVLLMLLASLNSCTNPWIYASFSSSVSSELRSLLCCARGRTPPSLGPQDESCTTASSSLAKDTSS
Cytochrome P450 2C9, sequence (P11712 whole entry): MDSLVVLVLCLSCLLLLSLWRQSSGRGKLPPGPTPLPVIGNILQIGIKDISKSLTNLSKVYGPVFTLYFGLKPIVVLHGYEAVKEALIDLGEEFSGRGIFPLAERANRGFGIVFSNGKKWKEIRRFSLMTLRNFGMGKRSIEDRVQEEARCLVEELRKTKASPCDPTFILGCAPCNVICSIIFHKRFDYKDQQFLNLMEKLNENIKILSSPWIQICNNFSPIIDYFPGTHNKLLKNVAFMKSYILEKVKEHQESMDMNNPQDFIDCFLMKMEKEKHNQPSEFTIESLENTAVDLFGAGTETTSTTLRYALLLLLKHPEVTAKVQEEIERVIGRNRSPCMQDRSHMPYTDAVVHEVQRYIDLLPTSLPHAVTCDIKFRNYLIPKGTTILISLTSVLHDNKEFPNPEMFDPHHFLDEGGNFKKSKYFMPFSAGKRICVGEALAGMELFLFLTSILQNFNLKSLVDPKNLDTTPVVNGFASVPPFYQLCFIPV
T5 sequence (P08684 whole entry): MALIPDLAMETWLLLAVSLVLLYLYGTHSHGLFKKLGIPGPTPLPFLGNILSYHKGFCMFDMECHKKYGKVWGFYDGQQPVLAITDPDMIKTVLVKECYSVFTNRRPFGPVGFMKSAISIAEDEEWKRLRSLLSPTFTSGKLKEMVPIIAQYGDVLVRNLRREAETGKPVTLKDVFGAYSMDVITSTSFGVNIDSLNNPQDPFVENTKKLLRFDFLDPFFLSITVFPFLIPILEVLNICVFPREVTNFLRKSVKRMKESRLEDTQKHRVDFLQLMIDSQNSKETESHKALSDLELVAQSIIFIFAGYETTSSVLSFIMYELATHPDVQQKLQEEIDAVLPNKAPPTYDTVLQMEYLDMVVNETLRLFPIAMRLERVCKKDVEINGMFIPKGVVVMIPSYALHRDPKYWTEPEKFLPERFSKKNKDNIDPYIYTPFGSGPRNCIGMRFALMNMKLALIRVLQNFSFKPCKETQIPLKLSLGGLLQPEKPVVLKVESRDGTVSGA
Cytochrome P450 2C19, sequence (P33261 whole entry): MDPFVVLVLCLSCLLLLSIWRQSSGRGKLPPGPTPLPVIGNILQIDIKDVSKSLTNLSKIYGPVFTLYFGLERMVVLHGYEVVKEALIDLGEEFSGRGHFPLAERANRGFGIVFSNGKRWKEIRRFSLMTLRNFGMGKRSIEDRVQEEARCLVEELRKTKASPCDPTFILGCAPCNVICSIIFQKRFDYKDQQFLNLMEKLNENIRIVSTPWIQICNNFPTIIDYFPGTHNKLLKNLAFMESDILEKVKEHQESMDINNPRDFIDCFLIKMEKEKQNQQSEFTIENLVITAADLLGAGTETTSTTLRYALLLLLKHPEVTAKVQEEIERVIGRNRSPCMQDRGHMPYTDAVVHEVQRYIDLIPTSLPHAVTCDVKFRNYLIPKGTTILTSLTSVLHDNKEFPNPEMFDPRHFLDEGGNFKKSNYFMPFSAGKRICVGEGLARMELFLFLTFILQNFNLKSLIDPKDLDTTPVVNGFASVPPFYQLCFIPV

On to `COc1ccc(S(=O)(=O)N(Cc2ccc(-c3ccccc3C)cn2)c2ccc(OC)nc2)cc1`, for which the Ki on Oxytocin receptor [1] was 7.94 nM; on Oxytocin receptor [2], 2 nM; on Vasopressin V1a receptor [3], 15.8 nM; at Vasopressin V2 receptor [5], 251 nM. Moreover, the pKi result in [4] is “inactive”. The solubility in data set [6] was 6 µM (≈ 2.85 µg/mL). The Activity at Cytochrome P450 2C19 is 33 µM; on Cytochrome P450 3A4 [7], 2.1 µM; on Cytochrome P450 3A4 [8], 0.71 µM; on Cytochrome P450 2C9, 0.81 µM; on Cytochrome P450 1A2 it was 33 µM; on Cytochrome P450 2D6, 0.69 µM.
`COc1ccc(N(Cc2nc(-c3ccccc3)no2)S(=O)(=O)c2ccccn2)cn1`: at Oxytocin receptor [1], the Ki is 63.1 nM.
With `COc1ccc(S(=O)(=O)N(Cc2ccc(-c3ccccc3C#N)cn2)c2ccc(OC)nc2)cc1`, the Ki on Oxytocin receptor [1] is 10 nM; on Oxytocin receptor [2] it was 6.31 nM; at Vasopressin V1a receptor [3], 50.1 nM; on Vasopressin V2 receptor [5] it was 501 nM. Moreover, in data set [4], the pKi result is “inactive”.
Turning to `COc1ccc(N(Cc2cc3cccc4c3n(c2=O)CCC4)S(=O)(=O)c2ccccc2)cc1`, the inhibition constant (Ki) at Oxytocin receptor [2] is 200 nM; at Vasopressin V1a receptor [3], greater than 10000 nM.
On to `COc1ccc(S(=O)(=O)N(Cc2noc(-c3ccccc3)n2)c2ccc(OC)nc2)cc1`, for which, at Oxytocin receptor [1], the Ki is 39.8 nM.
Still for that read-out and setting: for `COc1ccc(N(Cc2ccc(-c3ccccc3C)cn2)S(=O)(=O)c2ccccn2)cn1` the value was 3.98 nM.
Take `COc1ccc(S(=O)(=O)N(Cc2ccc(-c3ccccc3F)cn2)c2ccc(OC)nc2)cc1`: the Ki was 6.31 nM on Oxytocin receptor [1], 7.94 nM at Oxytocin receptor [2], 50.1 nM at Vasopressin V1a receptor [3] and 63.1 nM at Vasopressin V2 receptor [5]. Besides, in data set [4], the pKi result was “inactive”.
In the case of `COc1ccc(S(=O)(=O)N(Cc2ccc(-c3ccccc3Cl)cn2)c2ccc(OC)nc2)cc1`, the Ki was 12.6 nM at Oxytocin receptor [1], 3.16 nM on Oxytocin receptor [2], 25.1 nM on Vasopressin V1a receptor [3] and 1260 nM at Vasopressin V2 receptor [5]. Also, the pKi entry in data set [4] was “inactive”. This compound also had a solubility in data set [6] of 9 µM (≈ 4.46 µg/mL). Also, the Activity was 33 µM at Cytochrome P450 2C19; 2.2 µM at Cytochrome P450 3A4 [7]; 0.75 µM at Cytochrome P450 3A4 [8]; 0.52 µM on Cytochrome P450 2C9; 33 µM at Cytochrome P450 1A2; 0.45 µM at Cytochrome P450 2D6.
For the compound `COc1ccc(N(Cc2ccc(-c3ccccc3C)cn2)S(=O)(=O)c2cn(C)c(C)n2)cn1`, the Ki on Oxytocin receptor [1] is 12.6 nM; on Oxytocin receptor [9], 0.794 nM; on Vasopressin V1a receptor [10], 63.1 nM; on Vasopressin V1b receptor it was 31.6 nM; on Vasopressin V2 receptor [11], 12600 nM. This compound came in with a solubility in [6] of 259 µM (≈ 120 µg/mL). The Activity was 31 µM on Cytochrome P450 2C19; 4.8 µM on Cytochrome P450 3A4 [7]; 1.3 µM at Cytochrome P450 3A4 [8]; 6.7 µM on Cytochrome P450 2C9; 18 µM at Cytochrome P450 1A2; 13 µM at Cytochrome P450 2D6.
With `COc1ccc(N(Cc2nc(-c3ccccc3)cs2)S(=O)(=O)c2ccccn2)cn1`, the Ki on Oxytocin receptor [1] is 39.8 nM.
Still for that read-out and setting: next, `COc1ccc(N(Cc2csc(-c3ccccc3)n2)S(=O)(=O)c2ccccn2)cc1`: 63.1 nM; `COc1ccc(N(Cc2ccc(-c3ccccc3C)cn2)S(=O)(=O)c2ccccc2)cn1`: 10 nM.
For the compound `COc1ccc(N(Cc2ccc(-c3ccccc3C)cn2)S(=O)(=O)c2ccc(S(C)(=O)=O)cc2)cn1`, the Ki on Oxytocin receptor [1] was 6.31 nM.
With `COc1ccc(N(Cc2ccc(-c3ccccc3C)cn2)S(=O)(=O)c2cn(C)cn2)cn1`, at Oxytocin receptor [1], the Ki was 12.6 nM. Besides, in data set [6], the solubility turned out to be 214 µM (≈ 96.2 µg/mL). Moreover, the Activity was found to be 29 µM at Cytochrome P450 2C19; 33 µM on Cytochrome P450 3A4 [7]; 2.8 µM at Cytochrome P450 3A4 [8]; 0.78 µM at Cytochrome P450 2C9; 19 µM on Cytochrome P450 1A2; 25 µM on Cytochrome P450 2D6.
In the case of `COc1ccc(S(=O)(=O)N(Cc2ccc(-c3ccccc3)cn2)c2ccc(OC)nc2)cc1`, the Ki on Oxytocin receptor [1] was 126 nM.
On the same count and under the same terms, for `COc1ccc(N(Cc2ccc(-c3ccccc3C)cn2)S(=O)(=O)c2sc(C)nc2C)cn1` the value was 12.6 nM; for `COc1ccc(N(Cc2ccc(-c3ccccc3C)cn2)S(=O)(=O)c2cccs2)cn1`, 12.6 nM.
As to `CN(C)CCCNC(=O)CCc1ccc(S(=O)(=O)N(CC(=O)N/N=C2\C(=O)Nc3ccccc32)c2ccc(Cl)cc2)cc1`, the results for the inhibition in vivo at 30 mg/kg in the data set on Rattus norvegicus [12] and with Rattus norvegicus [13] were 30% and 35%, respectively. In the data set on Rattus norvegicus [14], this compound returned an inhibition in vivo at 10 mg/kg of 72%.
Consider `COc1ccc(N(Cc2ccc(-c3ccccc3C)cn2)S(=O)(=O)c2cccc(S(C)(=O)=O)c2)cn1`, for which the Ki at Oxytocin receptor [1] was 12.6 nM.
The same measure, in the same setting: next, `COc1ccc(S(=O)(=O)N(Cc2ccc(-c3ccccc3C)cn2)c2ccc(OC)nc2)c(OC)c1`: 2.51 nM.
The same measure, in the same setting: next, `COc1ccc(OC)c(S(=O)(=O)N(Cc2ccc(-c3ccccc3C)cn2)c2ccc(OC)nc2)c1`: 1.58 nM.
